Values joined by “and” are separate entries in the source; they are usually repeats but may differ in a detail not shown here. Equal values may be shown once.
Columns and labels:
[1] = Radioactivity of 3H-desMDP in liposome fraction and aqueous supernatant after mixing with pre-formed MLVs (Example 3, Table III); format: physicochemical
Protocol: MLVs were prepared as described above, hydrating the dried lipid film with PBS. These pre-formed liposomes were then mixed with unencapsulated MDP compound spiked with tritiated N-acetyldesmethylmuramyl-L-alanyl-D-isoglutamine (^3 H-desMDP). The liposome/MDP derivative mixture was washed and pelleted, and the final liposome pellet resuspended in PBS. The radioactivity in the liposome fraction was determined, as well as the radioactivity in the aqueous supernatant from the washing and pelleting steps. […] Thus, MDP compounds are not incorporated into or attached to liposomes in the practice of the invention.

[2] = tested on: Candida albicans; experiment: Survival of mice given a single abu-MDP treatment 72 hr prior to challenge with Candida albicans (Example 2, Table II); format: in vivo; conditions: one treatment at day 3 before infection
Protocol: (§1) Mice were injected intravenously with liposomes (4 micromoles phospholipid)and also with free abu-MDP (2-4 mg/kg). The abu-MDP was injected at the same time as the liposome injection. Injections were made at 96 and 48 hr prior to challenge with Candida albicans (5×10^6 cells injected intravenously). Control mice were treated with either liposomes only, or abu-MDP only (4 or 60 mg/kg), or abu-MDP (2-4 mg/kg) encapsulated in liposomes, and similarly challenged with Candida albicans. Each treatment group contained 20 mice. All mice were monitored daily for number of survivors. Statistical analysis of survival time was computed using Mann Whitney U probability analysis, and the numbers of survivors were statistically compared using Fisher Exact probability analysis.
A second experiment was performed by the method described in Example 1, except that the mice were given a single pre-infection treatment at 72 hr prior to challenge, instead of treatments at 96 and 48 hr prior to challenge as in Example 1.

[3] = tested on: Candida albicans; experiment: Survival of mice treated with abu-MDP at 96 and 48 hr prior to challenge with Candida albicans (Example 1, Table I); format: in vivo; conditions: for Survival No. (%) / Survival Time: no MLV, days 4 and 2 before infection; for Survival No. (%): third set of rows (saline control 0%); for Survival Time: third set of rows (saline control 3.6 days)
Protocol: Multilamellar vesicles (MLVs) were formed by drying down egg phosphatidylcholine and brain phosphatidylserine (7:3 molar ratio) on the inside of a flask. Phosphate-buffered saline lacking divalent cations (PBS) was added (1 ml per 20 micromoles phospholipid), and the flask shaken, either by hand or with a mechanical shaker, until the lipid film was dispersed. When N-acetylmuramyl-L-α-aminobutyryl-D-isoglutamine (abu-MDP) was to be encapsulated, it was included in the aqueous solution before addition to the lipid film. The vesicles formed as the result of shaking the aqueous solution which contained MDP derivative were washed to remove unencapsulated MDP derivative, pelleted by centrifugation at 30,000×g for 20-30 min, and then resuspended in PBS. MLV preparations made without MDP derivative were either pelleted and resuspended as described, or were used without further treatment.
as §1
P values, calculated for survival time and number of survivors at the time when controls (treated only with MLV or with saline) first reached 100% dead, were all less than 0.03. By comparison, the treatments with the same concentration of abu-MDP alone were ineffective (P≥0.05).

| Substance | cpm/0.1 ml ([1]; aqueous fraction (supernatant from washing and pelleting)) | % of Total ([1]; aqueous fraction (supernatant)) [%] | % of Total ([1]; liposome fraction) [%] | cpm/0.1 ml ([1]; liposome fraction (final pellet resuspended in PBS)) | Survival No. (%) ([2]; abu-MDP 4 mg/kg) | Survival Time ([2]; abu-MDP 4 mg/kg) [days] | Survival No. (%) ([2]; free abu-MDP 60 mg/kg) | Survival Time ([2]; free abu-MDP 60 mg/kg) [days] | protective activity against Candida albicans ([3]; abu-MDP alone at the same concentration as used with MLV (P≥0.05)) | Survival No. (%) ([3]; free abu-MDP 4 mg/kg) | Survival Time ([3]; free abu-MDP 4 mg/kg) [days] | Survival No. (%) ([3]; free abu-MDP 60 mg/kg) | Survival Time ([3]; free abu-MDP 60 mg/kg) [days] | protective activity against Candida albicans ([3]; free abu-MDP alone raised to 60 mg/kg) |
| --- | --- | --- | --- | --- | --- | --- | --- | --- | --- | --- | --- | --- | --- | --- |
| tritiated N-acetyldesmethylmuramyl-L-alanyl-D-isoglutamine [^3 H-desMDP] | 557,610 cpm/0.1 ml and 562,800 cpm/0.1 ml | ~100 | 0.2 | 1,462 cpm/0.1 ml and 1,304 cpm/0.1 ml | – | – | – | – | – | – | – | – | – | – |
| N-acetylmuramyl-L-α-aminobutyryl-D-isoglutamine [abu-MDP] | – | – | – | – | 0 | 5.2 | 32 | 6.4 | ineffective | 0 | 4.4 | 45 | 6.9 | protective activity obtained equivalent to that seen using the lower dose of abu-MDP (2-4 mg/kg) plus MLV |

Reference: US4684625A, “Method for enhancing the anti-infective activity of muramyldipeptide derivatives” (Syntex (U.S.A.) Inc., priority 1985, dated 1987)
